One data set concerns PC-12 cells. Kind of data set: NGF-induced neurite growth, quantitative image analysis. The class given is cell-based. The following applies: 200 nM oxaliplatin, NGF 100 ng/ml, 3 days. The method, then:
PC-12 was purchased from the ATCC (USA). The cells were cultured in a 100 mm cell culture dish coated with collagen type I in an incubator at 37° C., 5% CO2, using a DMEM basal medium supplemented with 5% non-heat inactivated fetal bovine serum (FBS), 10% heat inactivated horse serum (HS), 100 unit/ml penicillin, and 100 μg/ml streptomycin. The basal medium, sera, and other additives were purchased from the Thermo Fisher Scientific.
Specifically, PC-12 cells cultured according to [Materials and Methods 3-1] were evenly plated at 1×10^4 cells/well on a 24-well plate coated with collagen type IV in a DMEM growth medium where the cells were allowed to adhere on the bottom of the plate. After 12 hours, the medium was exchanged with a serum-free DMEM medium containing 100 ng/ml nerve growth factor (NGF) to induce neurite growth. The cells were treated with 200 nM oxaliplatin (Oxal) to induce neurotoxicity. Cells were co-treated with the Lithospermi Radix extract (WLR) prepared according to [Materials and Methods 1] at concentrations of 25 and 100 μg/ml, and amifostine (Ami) at 500 μM as a positive control. After 3 days, the ratios of cells forming neurites and the lengths of the neurites were quantified using image analysis under an optical microscope.

Data set [1] deals with intraepidermal nerve fiber (IENF) of peripheral neuropathic animals induced by oxaliplatin. Kind of data set: Quantitative histological analysis of intraepidermal nerve fiber (PGP9.5) in hind footpad skin. It counts as in vivo, C57BL/6 mice. The following applies: oxaliplatin 10 mg/kg. From the text: In the present invention, an animal model having peripheral neuropathy was induced by oxaliplatin. Eight-week old male C57BL/6 mice were purchased from the OrientBio. Following 1 week acclimation period in a cage in an animal test room, the base line (BL) of responses of experimental animals to 3 times of mechanical stimulations applied to the right hind footpad of the animal using von Frey filament hair. Then, the animals were divided into different groups (N=8 animals/group). Peripheral neuropathy was induced by injection of 5 mg/kg oxaliplatin through tail veins of animals (once a week, 2 times for 2 weeks, i.e., 10 mg/kg oxaliplatin in total). Oxaliplatin was purchased from the LC Laboratories. […]
The slice of hind footpad skin with 4 μm thickness was subjected to immunofluorescence staining using a PGP9.5 antibody, a marker for IENF in skin. […] The expression level of intraepidermal nerve fibers was expressed by the number of fluorescence-stained nerves in epidermis which were stemmed from dermis per field length of the basal membrane of epidermis (IENF/mm) within a viewing area under a fluorescence microscope. The fluorescent microscopic images were analyzed compared with control treatment using a software (Cellsense, Olympus). […]

In data set [2] the test system is dorsal root ganglion (DRG) neurons of peripheral neuropathic animals induced by oxaliplatin. As to the kind of experiment: Morphological cell analysis of dorsal root ganglion neurons. It counts as in vivo, C57BL/6 mice. The following applies: oxaliplatin 10 mg/kg. From the text:
In the present invention, an animal model having peripheral neuropathy was induced by oxaliplatin. Eight-week old male C57BL/6 mice were purchased from the OrientBio. Following 1 week acclimation period in a cage in an animal test room, the base line (BL) of responses of experimental animals to 3 times of mechanical stimulations applied to the right hind footpad of the animal using von Frey filament hair. Then, the animals were divided into different groups (N=8 animals/group). Peripheral neuropathy was induced by injection of 5 mg/kg oxaliplatin through tail veins of animals (once a week, 2 times for 2 weeks, i.e., 10 mg/kg oxaliplatin in total). Oxaliplatin was purchased from the LC Laboratories.
The specimens were prepared to histologically determine the protective effect of the Lithospermi Radix extract (WLR) against neuronal damage in peripheral neuropathic animals induced by oxaliplatin. Specifically, the animal was anaesthetized by intraperitoneal injection of sodium pentobarbital (50 mg/kg), and then, blood was removed by perfusion of 0.9% physiological saline through the aorta via left ventricle. Following fixation by perfusion of 4% paraformaldehyde solution buffered with 0.1 M phosphate, the 4th to 6th lumbar spinal cords, dorsal root ganglia, and the hind footpad skins were removed. The tissues were further fixed in the same fixation solution as above. The paraffin-embedded tissues were sectioned at a 4 μm thickness. The slices were mounted on a glass slide, dried, and then, kept at room temperature until use.
Dorsal root ganglions were cut out, sectioned into slices with 4 μm thickness and then, subjected to Azan-Mallory trichrome staining. The nucleoli in the stained slice were examined under an optical microscope. Among the neurons having discernible nucleoli, the number of neurons having eccentric nucleoli or multinucleolated nucleus was expressed as a percentage of the total neurons in a viewing area.
Specifically, peripheral neuropathy was induced in male C57BL/6 mice by oxaliplatin (10 mg/kg) according to [Materials and Methods 4]. After that, the mice were orally administered 6 times per week with 250 mg/kg of a Lithospermi Radix extract (WLR) prepared in [Materials and Methods 1] or 0.5% carboxymethyl cellulose (CMC) as a negative control. In addition, 100 mg/kg amifostine was intraperitoneally administered 2 times per week as a positive control. After drug administration for 2 weeks, dorsal root ganglion (DRG) was cut out according to [Materials and Methods 6-1]. Using the obtained specimen, morphological change of nucleus and nucleoli in the dorsal root ganglion (DRG) neurons was observed according to [Materials and Methods 6-4].

Experimental findings from patent publication US10517913B2, “Composition for prevention, alleviation, or treatment of peripheral neuropathy comprising Lithospermi Radix extract as an effective component” (priority 2015, dated 2019) are described below.

`O=C1[O][Pt]2([NH][C@@H]3CCCC[C@H]3[NH]2)[O]C1=O` [oxaliplatin]: the “neurite growth induced by nerve growth factor (NGF)” value in the data set with PC-12 cells was “inhibited”. In addition, in data set [1], the “densities of intraepidermal nerve fibers in hind footpad skin” value is “reduced”. Further, in data set [2], the “frequency of DRG neurons having eccentric nucleoli” value was “increased” and the “frequency of DRG neurons having multinucleolated nucleus” value is listed as “increased”.
